Assay results taken from US20260262643A1, “HERBICIDAL BENZOXAZINES” (FMC CORPORATION, priority 2022, published 2026).

What was measured:
ryegrass, Italian [1] = test: Test C postemergence; format: in vivo, Lolium multiflorum; settings: 10 days, 0 to 100 scale (0 no effect, 100 complete control)
Method in brief: (§1)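 Pre: seeds in loam/sand, directed soil spray. Post: 1–2 leaf plants, 2–10 cm. Cmpd in non-phytotoxic solvent + surfactant. Greenhouse 10 d; visual rating vs untreated, 0 = none, 100 = complete control.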

barnyardgrass [2] = test: Test D flooded paddy test; format: in vivo, Echinochloa crus-galli; settings: 250 g ai/ha, applied to paddy water, visual rating after 13 to 14 days, scale 0 to 100 (0 no effect, 100 complete control)
Method in brief: (§2)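 Rating scale 0–100 (0 no effect, 100 complete control), visual, versus controls. Readout at 13–14 days after in-water application to 2-leaf plants in pots flooded 3 cm deep.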

soybean [3] = test: Test C preemergence; format: in vivo, Glycine max
Method in brief: as §1

blackgrass [4] = test: Test C preemergence; format: in vivo, Alopecurus myosuroides
Method in brief: as §1

oat, wild [5] = test: Test C postemergence; format: in vivo, Avena fatua; settings: 10 days, 0 to 100 scale (0 no effect, 100 complete control)
Method in brief: as §1

barnyardgrass [6] = test: Test C preemergence; format: in vivo, Echinochloa crusgalli
Method in brief: as §1

ryegrass, Italian [7] = test: Test C preemergence; format: in vivo, Lolium multiflorum
Method in brief: as §1

corn [8] = test: Test C postemergence; format: in vivo, Zea mays; settings: 10 days, 0 to 100 scale (0 no effect, 100 complete control)
Method in brief: as §1

oat, wild [9] = test: Test C preemergence; format: in vivo, Avena fatua
Method in brief: as §1

wheat [10] = test: Test C preemergence; format: in vivo, Triticum aestivum
Method in brief: as §1

foxtail, giant [11] = test: Test C postemergence; format: in vivo, Setaria faberi; settings: 10 days, 0 to 100 scale (0 no effect, 100 complete control)
Method in brief: as §1

wheat [12] = test: Test C postemergence; format: in vivo, Triticum aestivum; settings: 10 days, 0 to 100 scale (0 no effect, 100 complete control)
Method in brief: as §1

barnyardgrass [13] = test: Test C postemergence; format: in vivo, Echinochloa crusgalli; settings: 10 days, 0 to 100 scale (0 no effect, 100 complete control)
Method in brief: as §1

rice = test: Test D flooded paddy test; format: in vivo, Oryza sativa; settings: 250 g ai/ha, applied to paddy water, visual rating after 13 to 14 days, scale 0 to 100 (0 no effect, 100 complete control)
Method in brief: as §2

kochia [14] = test: Test C preemergence; format: in vivo, Bassia scoparia
Method in brief: as §1

horseweed = test: Test C postemergence; format: in vivo, Erigeron canadensis; settings: 10 days, 0 to 100 scale (0 no effect, 100 complete control)
Method in brief: as §1

foxtail, giant [15] = test: Test C preemergence; format: in vivo, Setaria faberi
Method in brief: as §1

galium = test: Test C postemergence; format: in vivo, Galium aparine; settings: 10 days, 0 to 100 scale (0 no effect, 100 complete control)
Method in brief: as §1

ragweed [16] = test: Test C preemergence; format: in vivo, Ambrosia artemisiifolia
Method in brief: as §1

ragweed [17] = test: Test C postemergence; format: in vivo, Ambrosia artemisiifolia; settings: 10 days, 0 to 100 scale (0 no effect, 100 complete control)
Method in brief: as §1

soybean [18] = test: Test C postemergence; format: in vivo, Glycine max; settings: 10 days, 0 to 100 scale (0 no effect, 100 complete control)
Method in brief: as §1

pigweed, palmer [19] = test: Test C postemergence; format: in vivo, Amaranthus palmeri; settings: 10 days, 0 to 100 scale (0 no effect, 100 complete control)
Method in brief: as §1

sedge, umbrella = test: Test D flooded paddy test; format: in vivo, Cyperus difformis; settings: 250 g ai/ha, applied to paddy water, visual rating after 13 to 14 days, scale 0 to 100 (0 no effect, 100 complete control)
Method in brief: as §2

pigweed, palmer [20] = test: Test C preemergence; format: in vivo, Amaranthus palmeri
Method in brief: as §1

blackgrass [21] = test: Test C postemergence; format: in vivo, Alopecurus myosuroides; settings: 10 days, 0 to 100 scale (0 no effect, 100 complete control)
Method in brief: as §1

ducksalad = test: Test D flooded paddy test; format: in vivo, Heteranthera limosa; settings: 250 g ai/ha, applied to paddy water, visual rating after 13 to 14 days, scale 0 to 100 (0 no effect, 100 complete control)
Method in brief: as §2

corn [22] = test: Test C preemergence; format: in vivo, Zea mays; settings: 500 g ai/ha, preemergence; 0 to 100 scale (0 no effect, 100 complete control)
Method in brief: as §1

kochia [23] = test: Test C postemergence; format: in vivo, Bassia scoparia; settings: 10 days, 0 to 100 scale (0 no effect, 100 complete control)
Method in brief: as §1

[24] = 500 g ai/ha, preemergence, 0 to 100 scale (0 no effect, 100 complete control)
[25] = Preemergence, 125 g ai/ha, 0 to 100 scale, 0 no effect, 100 complete control

## Cc1ncn(-c2cccc(C(=O)N3C[C@H](C)Oc4c(Cl)cccc43)c2)n1 [Compound 326]
ryegrass, Italian [1]; 500 g ai/ha, postemergence
  Plant response rating, Ryegrass, Italian: 80
ryegrass, Italian [1]; Postemergence, 125 g ai/ha
  Plant response rating, Ryegrass, Italian: 40
Barnyardgrass [2]
  Plant response rating, Barnyardgrass (Flood): 15
Soybean [3]; [24]
  Soybean plant response rating: 80
Soybean [3]; [25]
  Plant response rating, Soybean: 70
Blackgrass [4]; [24]
  Blackgrass plant response rating: 90
Blackgrass [4]; [25]
  Plant response rating, Blackgrass: 80
oat, wild [5]; 500 g ai/ha, postemergence
  Plant response rating, Oat, Wild: 50
oat, wild [5]; Postemergence, 125 g ai/ha
  Plant response rating, Oat, Wild: 20
Barnyardgrass [6]; [24]
  Barnyardgrass plant response rating: 90
Barnyardgrass [6]; [25]
  Plant response rating, Barnyardgrass: 60
ryegrass, Italian [7]; [24]
  Ryegrass, Italian plant response rating: 100
ryegrass, Italian [7]; [25]
  Plant response rating, Ryegrass, Italian: 90
Corn [8]; 500 g ai/ha, postemergence
  Plant response rating, Corn: 80
Corn [8]; Postemergence, 125 g ai/ha
  Plant response rating, Corn: 10
oat, wild [9]; [24]
  Oat, Wild plant response rating: 80
oat, wild [9]; [25]
  Plant response rating, Oat, Wild: 30
Wheat [10]; [24]
  Wheat plant response rating: 80
Wheat [10]; [25]
  Plant response rating, Wheat: 20
foxtail, giant [11]; 500 g ai/ha, postemergence
  Plant response rating, Foxtail, Giant: 90
foxtail, giant [11]; Postemergence, 125 g ai/ha
  Plant response rating, Foxtail, Giant: 70
Wheat [12]; 500 g ai/ha, postemergence
  Plant response rating, Wheat: 40
Wheat [12]; Postemergence, 125 g ai/ha
  Plant response rating, Wheat: 20
Barnyardgrass [13]; 500 g ai/ha, postemergence
  Plant response rating, Barnyardgrass: 80
Barnyardgrass [13]; Postemergence, 125 g ai/ha
  Plant response rating, Barnyardgrass: 30
rice
  Plant response rating, Rice (Flood): 0
Kochia [14]; [24]
  Kochia plant response rating: 90
Kochia [14]; [25]
  Plant response rating, Kochia: 80
horseweed; 500 g ai/ha, postemergence
  Plant response rating, Horseweed: 50
horseweed; Postemergence, 125 g ai/ha
  Plant response rating, Horseweed: 0
foxtail, giant [15]; [24]
  Foxtail, Giant plant response rating: 100
foxtail, giant [15]; [25]
  Plant response rating, Foxtail, Giant: 100
galium; 500 g ai/ha, postemergence
  Plant response rating, Galium: 100
galium; Postemergence, 125 g ai/ha
  Plant response rating, Galium: 100
Ragweed [16]; [24]
  Ragweed plant response rating: 0
Ragweed [16]; [25]
  Plant response rating, Ragweed: 0
Ragweed [17]; 500 g ai/ha, postemergence
  Plant response rating, Ragweed: 60
Ragweed [17]; Postemergence, 125 g ai/ha
  Plant response rating, Ragweed: 10
Soybean [18]; 500 g ai/ha, postemergence
  Plant response rating, Soybean: 100
Soybean [18]; Postemergence, 125 g ai/ha
  Plant response rating, Soybean: 100
pigweed, palmer [19]; 500 g ai/ha, postemergence
  Plant response rating, Pigweed, Palmer: 60
pigweed, palmer [19]; Postemergence, 125 g ai/ha
  Plant response rating, Pigweed, Palmer: 20
sedge, umbrella
  Plant response rating, Sedge, Umbrella (Flood): 95
pigweed, palmer [20]; [24]
  Pigweed, Palmer plant response rating: 100
pigweed, palmer [20]; [25]
  Plant response rating, Pigweed, Palmer: 60
Blackgrass [21]; 500 g ai/ha, postemergence
  Plant response rating, Blackgrass: 80
Blackgrass [21]; Postemergence, 125 g ai/ha
  Plant response rating, Blackgrass: 80
ducksalad
  Plant response rating, Ducksalad (Flood): 80
Corn [22]
  Corn plant response rating: 40
Kochia [23]; 500 g ai/ha, postemergence
  Plant response rating, Kochia: 80
Kochia [23]; Postemergence, 125 g ai/ha
  Plant response rating, Kochia: 80
